From US20090123907A1 (priority 2004, published 2009)
Values joined by “and” are separate entries in the source; they are usually repeats but may differ in a detail not shown here. Equal entries are not always repeated.

How the values were obtained:
red blood cells = experiment: Red blood cell integrity during storage at 4° C.; type: cell-based; set-up: MCV Day 20 / MCV Day 33: unit not given here; conditions: for RBC Day 1: whole blood; for MCV Day 20 / MCV Day 33: whole blood stored at 4° C.
Protocol: (§1) In this experiment whole blood (an aliquot of which clotted within 10 minutes without anticoagulant) was modified by adding a number of different anticoagulant compositions. Sodium citrate was used as an anticoagulant at 0.65%, 0.75% and 0.9% by weight. These are all higher citrate levels than the usual 0.4% by weight. Amino acid citrates (lysine or arginine) were used at 0.65%, 0.75% and 0.9% by weight based on the weight of the citric acid. The amino acid counterion was used in sufficient quantity to adjust the pH as explained above.
To judge red cell condition the blood was counted and various other measurements were taken initially and after 20 and 33 days of storage at 4° C. Apparent initial/differences in RBC counts are due to dilution caused by adding extra anticoagulant. Mean cell volume (MCV) is a red cell index that is a useful measure of red cell health. […] It is believed that a citrate level of at least about 1.0% by weight (i.e., more than two times the usual amount) is necessary to ensure against all activation of plasma proteins. […] On the other hand, amino acid citrates, which are very effective anticoagulants, are also effective at preventing red cell damage.

clot formation = experiment: Clotting times (PT, PTT) of anticoagulated whole blood; type: biochemical
Protocol: as §1

[1] = tested on: clotting enzyme activation (D-dimers); experiment: D-dimer test (DimerTest latex agglutination) for cryptic activation in citrated plasma; type: biochemical
Protocol: The samples were divided into four 1 ml aliquots. To three of the sample aliquots, sufficient concentrated citrate solution was added to achieve 1%, 1.5% or 2% weight/volume citrate, respectively, while the fourth aliquot acted as the control.
As a “worst case” scenario to detect activation, the aliquots were incubated at 21° C. for a maximum of ten days. Each aliquot was assayed daily for the presence of D-dimers using the DimerTest latex agglutination assay (American Diagnostica, Stamford, Conn.). The results are shown in Table 1 where the number of days to observable D-dimers is listed for each aliquot. […] At day six of incubation, 41.2% (14) of the control aliquots were positive for the presence of D-dimers. By day seven, 100% (34) of the normal citrate (0.4%) aliquots were positive for D-dimers.

| Compound | RBC Day 1 (red blood cells; anticoagulant 0.65 wgt %) | MCV Day 20 (red blood cells; anticoagulant 0.65 wgt %) | MCV Day 33 (red blood cells; anticoagulant 0.65 wgt %) | RBC Day 1 (red blood cells; anticoagulant 0.75 wgt %) | MCV Day 20 (red blood cells; anticoagulant 0.75 wgt %) | MCV Day 33 (red blood cells; anticoagulant 0.75 wgt %) | RBC Day 1 (red blood cells; anticoagulant 0.90 wgt %) | MCV Day 20 (red blood cells; anticoagulant 0.90 wgt %) | MCV Day 33 (red blood cells; anticoagulant 0.90 wgt %) | PT (4 hrs at RT) (clot formation; anticoagulant 0.65 wgt %) [s] | PTT (4 hrs at RT) (clot formation; anticoagulant 0.65 wgt %) [s] | PT (4 hrs at RT) (clot formation; anticoagulant 0.75 wgt %) [s] | PTT (4 hrs at RT) (clot formation; anticoagulant 0.75 wgt %) [s] | PT (4 hrs at RT) (clot formation; anticoagulant 0.90 wgt %) [s] | PTT (4 hrs at RT) (clot formation; anticoagulant 0.90 wgt %) [s] | number of days to observable D-dimers ([1]; 0.4% Citrate, plasma at 21° C., maximum ten days) | aliquots positive for the presence of D-dimers ([1]; 0.4% citrate control aliquots, day six of incubation) [%] | aliquots positive for D-dimers ([1]; 0.4% citrate, by day seven) [%] | aliquots that showed D-dimers by day ten ([1]; additional citrate (1%, 1.5%, 2%)) |
| --- | --- | --- | --- | --- | --- | --- | --- | --- | --- | --- | --- | --- | --- | --- | --- | --- | --- | --- | --- |
| N=C(N)NCCC[C@H](N)C(=O)O.O=C(O)CC(O)(CC(=O)O)C(=O)O [Arg Citrate, arginine citrate] | 5.77 10^6/μl | 93.1 | 93.5 | 6.45 10^6/μl | 92.6 | 93.6 | 6.77 10^6/μl | 91.5 | 92.4 | 15.8 | 36.8 | 20.2 | 39.9 | 55 | 56.8 | – | – | – | – |
| O=C(O)CC(O)(CC(=O)O)C(=O)O [Citrate] | – | – | – | – | – | – | – | – | – | – | – | – | – | – | – | 6 days and 7 days and 5 days | 41.2 | 100 | None |
